As a reminder, the IC50 is the concentration that inhibits the measured activity by half.

In experiment [1] the target is T1, BACE1 (Homo sapiens, UniProt P56817).
T1 construct: Human HEK293 cells which are stably transfected with a vector expressing a cDNA of the human APP wt gene (APP695); endogenous in cells; host or cells: HEK293 stably expressing human APP695 wt
As to the kind of experiment: Cellular Aβ-lowering assay (Aβ40 ELISA, HEK293 cells expressing human APP695). The class given is cell-based. The note with it: HEK293 cells stably expressing human APP695; Aβ40 in supernatant after 18-20 hrs; read-out: BACE1 cell act. Aβ40 IC50. On the procedure:
Human HEK293 cells which are stably transfected with a vector expressing a cDNA of the human APP wt gene (APP695) were used to assess the potency of the compounds in a cellular assay. The cells were seeded in 96-well microtiter plates in cell culture medium (Iscove, plus 10% (v/v) fetal bovine serum, glutamine, penicillin/streptomycin) to about 80% confluence and the compounds were added at a 10× concentration in 1/10 volume of medium without FCS containing 8% DMSO (final concentration of DMSO was kept at 0.8% v/v). After 18-20 hrs incubation at 37° C. and 5% CO2 in a humidified incubator the culture supernatant was harvested for the determination of Aβ40 concentrations. 96 well ELISA plates (e.g., Nunc MaxiSorb) were coated with monoclonal antibody which specifically recognize the C-terminal end of Aβ40^10. After blocking of non-specific binding sites with e.g. 1% BSA and washing, the culture supernatants were added in suitable dilutions together with a horseradish peroxidase-coupled Aβ detection antibody (e.g., antibody 4G8, Senetek, Maryland Heights, Mo.) and incubated for 5 to 7 hrs. Subsequently the wells of the microtiter plate were washed extensively with Tris-buffered saline containing 0.05% Tween 20 and the assay was developed with tetramethylbenzidine/H2O2 in citric acid buffer. After stopping the reaction with one volume 1 N H2SO4 the reaction was measured in an ELISA reader at 450 nm wavelength. The concentrations of Aβ in the culture supernatants were calculated from a standard curve obtained with known amounts of pure Aβ peptide.

The target of experiment [2] is T2, recombinant human cathepsin E (Homo sapiens, UniProt P14091).
T2 construct: purchased R&D Systems
T2 sequence (P14091 54-396): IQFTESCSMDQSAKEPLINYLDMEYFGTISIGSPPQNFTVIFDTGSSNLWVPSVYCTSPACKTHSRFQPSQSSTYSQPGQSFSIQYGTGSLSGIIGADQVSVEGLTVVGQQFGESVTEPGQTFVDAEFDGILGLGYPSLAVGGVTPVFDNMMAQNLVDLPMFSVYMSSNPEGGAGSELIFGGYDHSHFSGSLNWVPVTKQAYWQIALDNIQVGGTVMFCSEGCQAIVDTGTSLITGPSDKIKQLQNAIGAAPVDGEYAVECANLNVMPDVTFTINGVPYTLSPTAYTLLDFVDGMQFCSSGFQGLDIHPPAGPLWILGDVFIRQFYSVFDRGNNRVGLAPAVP
As to the kind of experiment: Cathepsin E fluorescent substrate kinetic assay. The class given is biochemical. The conditions noted are these: pH 4.5. The source says: (§1) The MR121 fluorescence assays described below are based on the fact that MR121 forms a non-fluorescent ground state complex with tryptophan. In solution this formation occurs at millimolar concentrations of tryptophan. The mechanism can be used to design a generic biochemical assay for proteases. A substrate peptide is labeled at the N-terminus with tryptophan and at the C-terminus with the fluorophore MR121 (for cathepsin D the 10 amino acid peptide WTSVLMAAPC-MR121 was used; for cathepsin E, MR121-CKLVFFAEDW was used). In absence of protease activity, the substrates remain intact and the MR121 fluorescence is reduced by the high local Trp-concentration. If the substrates are cleaved by the enzymes the MR121 fluorescence is recovered.
(§2) The fluorescent substrate cathepsin D and cathepsin E kinetic assays were performed at room temperature in 384-well microtiter plates (black with clear flat bottom, non binding surface plates from Corning) in a final volume of 51 μl. The test compounds were serially diluted in DMSO (15 concentrations, 1/3 dilution steps) and 1 μl of diluted compounds were mixed for 10 min with 40 μl of cathepsin D (from human liver, Calbiochem) diluted in assay buffer (100 mM sodium acetate, 0.05% BSA, pH 5.5; final concentration: 200 nM) or with 40 μl of recombinant human cathepsin E (R&D Systems) diluted in assay buffer (100 mM sodium acetate, 0.05% BSA, pH 4.5; final concentration: 0.01 nM). After addition of 10 μl of the cathepsin D substrate WTSVLMAAPC-MR121 diluted in cathepsin D assay buffer (final concentration: 300 nM) or […] cathepsin E substrate MR121-CKLVFFAEDW diluted in cathepsin E assay buffer (final concentration: 300 nM), the plates were strongly shaken for 2 minutes. The enzymatic reaction was followed in a plate: vision reader (Perkin Elmer) (excitation wavelength: 630 nm; emission: 695 nm) for at least 30 minutes in a kinetic measurement detecting an increase of MR121 fluorescence during the reaction time. The slope in the linear range of the kinetic was calculated and the IC50 of the test compounds were determined using a four parameter equation for curve fitting.

Experiment [3] deals with T3, cathepsin D (from human liver) (Homo sapiens, UniProt P07339).
T3 construct: cathepsin D (from human liver, Calbiochem); purchased Calbiochem; host or cells: human liver (tissue-purified)
In words: Cathepsin D fluorescent substrate kinetic assay. The format is biochemical. The note with it: pH 5.5.
Text: as §1, §2

Experiment [4] addresses T4, CYP3A4 (Homo sapiens, UniProt P08684).
T4 construct: 0.2 mg/ml pooled human liver microsomes; from tissue; host or cells: pooled human liver microsomes
As to the kind of experiment: CYP inhibition assay, human liver microsomes, midazolam. The format is in vitro ADME. The note with it: read-out: CYP IC50 3A4. On the procedure:
(§3) Inhibition of cytochromes P450 (CYPs) 2C9, 2D6 and 3A4 was assessed using human liver microsomes and CYP-selective substrate metabolism reactions. 50 μl incubations were made up containing (finally) 0.2 mg/ml pooled human liver microsomes, 5 μM substrate (diclofenac for CYP2C9 [4′hydroxylase], dextromethorphan for CYP2D6 [O-demethylase] or midazolam for CYP3A4 [1′hydroxylase]), 0.25 μL DMSO containing test inhibitor and NADPH regenerating system. Test inhibitor concentrations of 50, 16.7, 5.6, 1.9, 0.6 and 0.2 μM were assessed in singlicate. Incubations were prewarmed to 37° C. for 10 minutes before initiation by addition of NADPH regenerating system. Incubations were quenched after 5 minutes (20 minutes for dextromethorphan) by addition of 50 μl cold acetonitrile containing 20 ng/ml 4-OH-diclofenac-13C6, 20 ng/mL dextrorphan-D3 and 20 ng/mL 1-OH-midazolam-D4. Quenched incubates were stored at −20° C. for at least 1 hour before centrifugation (20,000×g, 20 minutes). Supernatants were removed and diluted 1:1 with water prior to analysis using a RapidFire sample injector system and API4000 mass spectrometer. Peak areas for substrate, metabolite and stable-labelled metabolite standard were determined using MS/MS. The peak area ratios between the metabolite generated by the enzymatic reaction and the internal standard were used in subsequent calculations. The percentage of (DMSO) control activity was calculated for each incubate and IC50 values estimated by non-linear regression. Sulfaphenazole, quinidine or ketoconazole were tested in each CYP2C9, CYP2D6 or CYP3A4 inhibition experiment, respectively, to ensure assay sensitivity and reproducibility. (Validated assays for human cytochrome P450 activities^11)
On the technique in general: Microsomes from liver hold many membrane-bound enzymes, among them those of drug oxidation.

In experiment [5] the target is T5, CYP2D6 (Homo sapiens, UniProt P10635).
T5 construct: 0.2 mg/ml pooled human liver microsomes; from tissue; host or cells: pooled human liver microsomes
As to the kind of experiment: CYP inhibition assay, human liver microsomes, dextromethorphan. The format is in vitro ADME. The conditions noted are these: read-out: CYP IC50 2D6. The procedure: as §3

Experiment [6] deals with T6, CYP2C9 (Homo sapiens, UniProt P11712).
T6 construct: 0.2 mg/ml pooled human liver microsomes; from tissue; host or cells: pooled human liver microsomes
In words: CYP inhibition assay, human liver microsomes, diclofenac. The format is in vitro ADME. The conditions noted are these: read-out: CYP IC50 2C9. On the procedure: as §3

T1 sequence (P56817 46-501): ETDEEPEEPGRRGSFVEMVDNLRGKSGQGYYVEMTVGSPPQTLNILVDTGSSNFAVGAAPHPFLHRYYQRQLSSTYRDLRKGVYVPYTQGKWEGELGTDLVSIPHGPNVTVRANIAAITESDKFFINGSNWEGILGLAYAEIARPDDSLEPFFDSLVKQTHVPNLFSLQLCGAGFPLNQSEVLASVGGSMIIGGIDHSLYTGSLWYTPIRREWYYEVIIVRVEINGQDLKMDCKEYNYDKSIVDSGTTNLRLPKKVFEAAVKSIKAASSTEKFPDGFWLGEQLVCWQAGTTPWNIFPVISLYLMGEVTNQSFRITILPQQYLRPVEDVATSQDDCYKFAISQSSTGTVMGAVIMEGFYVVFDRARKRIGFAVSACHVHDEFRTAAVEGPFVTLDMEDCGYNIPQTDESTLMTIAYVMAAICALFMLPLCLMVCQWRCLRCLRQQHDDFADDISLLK
T3 sequence (P07339 65-162 limits assumed): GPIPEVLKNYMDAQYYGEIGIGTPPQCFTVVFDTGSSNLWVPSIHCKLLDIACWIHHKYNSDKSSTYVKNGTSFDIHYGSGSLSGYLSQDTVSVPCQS
T3 sequence (P07339 169-412 limits assumed): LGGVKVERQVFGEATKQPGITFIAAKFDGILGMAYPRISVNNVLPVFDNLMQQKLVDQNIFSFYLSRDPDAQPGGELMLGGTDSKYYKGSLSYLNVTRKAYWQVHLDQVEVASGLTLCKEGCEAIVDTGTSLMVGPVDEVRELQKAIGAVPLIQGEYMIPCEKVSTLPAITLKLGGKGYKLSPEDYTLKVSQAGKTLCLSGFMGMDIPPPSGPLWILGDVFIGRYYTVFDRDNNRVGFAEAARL
T6 sequence (P11712 whole entry): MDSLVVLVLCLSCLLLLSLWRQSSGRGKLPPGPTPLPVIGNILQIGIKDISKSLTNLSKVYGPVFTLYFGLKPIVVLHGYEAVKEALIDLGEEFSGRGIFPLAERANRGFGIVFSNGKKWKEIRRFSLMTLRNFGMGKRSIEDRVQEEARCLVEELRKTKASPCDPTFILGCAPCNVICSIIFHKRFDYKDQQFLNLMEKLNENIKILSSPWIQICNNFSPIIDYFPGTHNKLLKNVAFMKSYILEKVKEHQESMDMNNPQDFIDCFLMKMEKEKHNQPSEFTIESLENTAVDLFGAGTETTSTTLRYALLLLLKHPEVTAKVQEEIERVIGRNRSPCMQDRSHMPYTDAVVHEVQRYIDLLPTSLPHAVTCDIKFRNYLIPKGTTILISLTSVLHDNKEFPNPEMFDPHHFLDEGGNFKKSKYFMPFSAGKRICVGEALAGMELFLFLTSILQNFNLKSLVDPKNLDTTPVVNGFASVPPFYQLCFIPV
T5 sequence (P10635 whole entry): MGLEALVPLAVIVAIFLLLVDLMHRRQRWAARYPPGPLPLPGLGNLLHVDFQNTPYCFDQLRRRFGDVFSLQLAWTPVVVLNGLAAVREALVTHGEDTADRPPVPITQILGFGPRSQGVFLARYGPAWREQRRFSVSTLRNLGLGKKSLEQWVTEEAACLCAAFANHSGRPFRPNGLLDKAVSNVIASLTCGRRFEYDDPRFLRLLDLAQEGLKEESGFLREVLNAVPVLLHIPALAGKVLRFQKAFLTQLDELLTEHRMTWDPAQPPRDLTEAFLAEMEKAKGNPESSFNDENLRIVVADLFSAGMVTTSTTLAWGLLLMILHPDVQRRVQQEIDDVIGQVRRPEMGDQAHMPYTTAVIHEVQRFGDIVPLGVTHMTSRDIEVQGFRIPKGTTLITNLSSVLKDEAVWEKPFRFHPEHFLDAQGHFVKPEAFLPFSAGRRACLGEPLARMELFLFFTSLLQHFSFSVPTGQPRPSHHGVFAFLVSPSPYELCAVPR
T4 sequence (P08684 whole entry): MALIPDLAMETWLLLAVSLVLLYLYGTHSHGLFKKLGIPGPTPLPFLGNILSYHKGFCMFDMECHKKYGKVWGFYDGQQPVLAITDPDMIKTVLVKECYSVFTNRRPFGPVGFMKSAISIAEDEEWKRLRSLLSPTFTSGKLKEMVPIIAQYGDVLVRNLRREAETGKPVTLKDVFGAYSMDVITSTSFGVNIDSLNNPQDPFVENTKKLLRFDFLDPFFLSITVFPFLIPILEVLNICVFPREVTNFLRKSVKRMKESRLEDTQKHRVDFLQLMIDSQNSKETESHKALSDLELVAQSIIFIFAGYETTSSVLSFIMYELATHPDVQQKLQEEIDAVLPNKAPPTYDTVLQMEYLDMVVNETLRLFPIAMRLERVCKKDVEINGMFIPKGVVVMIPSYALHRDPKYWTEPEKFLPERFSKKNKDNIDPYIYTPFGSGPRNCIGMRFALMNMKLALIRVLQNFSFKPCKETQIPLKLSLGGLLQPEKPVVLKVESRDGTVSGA

Take `C[C@]1(c2cc(NC(=O)c3ccc(Cl)cn3)ccc2F)N=C(N)O[C@@H]2CCC(F)(F)[C@@H]21` [Example 3]: the half-maximal inhibitory concentration (IC50) in experiment [1] turned out to be 1.9 nM.
As to `CC(F)(F)c1cnc(C(=O)Nc2ccc(F)c([C@@]3(C)N=C(N)O[C@@H]4CCC(F)(F)[C@@H]43)c2)cn1` [Example 4, 5-(1,1-Difluoro-ethyl)-pyrazine-2-carboxylic acid [3-((4S,4aR,7aR)-2-amino-5,5-difluoro-4-methyl-4,4a,5,6,7,7a-hexahydro-cyclopenta[e][1,3]oxazin-4-yl)-4-fluoro-phenyl]-amide], the IC50 in experiment [1] was 8.9 nM; in experiment [2], over 200000 nM; in experiment [3] it was 183000 nM.
Turning to `C[C@]1(c2cc(NC(=O)c3cnc(CF)cn3)ccc2F)N=C(N)O[C@@H]2CCC(F)(F)[C@@H]21` [Example 5, 5-Fluoromethyl-pyrazine-2-carboxylic acid [3-((4S,4aR,7aR)-2-amino-5,5-difluoro-4-methyl-4,4a,5,6,7,7a-hexahydro-cyclopenta[e][1,3]oxazin-4-yl)-4-fluoro-phenyl]-amide], the 50% inhibitory concentration (IC50) in experiment [1] turned out to be 5.1 nM.
Still for that read-out and setting: the result for `C[C@]1(c2cc(NC(=O)c3cnc(C#N)cn3)ccc2F)N=C(N)O[C@@H]2CCC(F)(F)[C@@H]21` [Example 6, 5-Cyano-pyrazine-2-carboxylic acid [3-((4S,4aR,7aR)-2-amino-5,5-difluoro-4-methyl-4,4a,5,6,7,7a-hexahydro-cyclopenta[e][1,3]oxazin-4-yl)-4-fluoro-phenyl]-amide] reads 5.5 nM; that for `C[C@]1(c2cc(NC(=O)c3ccc(Cl)cn3)ccc2F)N=C(N)O[C@@H]2CCCC(F)(F)[C@@H]21` [Example 7, 5-Chloro-pyridine-2-carboxylic acid [3-((4S,4aR,8aR)-2-amino-5,5-difluoro-4-methyl-4a,5,6,7,8,8a-hexahydro-4H-benzo[e][1,3]oxazin-4-yl)-4-fluoro-phenyl]-amide], 4.9 nM.
In the case of `C[C@]1(c2cc(NC(=O)c3ccc(Cl)s3)ccc2F)N=C(N)O[C@@H]2CCCC(F)(F)[C@@H]21` [Example 9, 5-Chloro-thiophene-2-carboxylic acid [3-((4S,4aR,8aR)-2-amino-5,5-difluoro-4-methyl-4a,5,6,7,8,8a-hexahydro-4H-benzo[e][1,3]oxazin-4-yl)-4-fluoro-phenyl]-amide], the 50% inhibitory concentration (IC50) in experiment [1] was 350 nM; in experiment [2] it was over 200000 nM; in experiment [3], 105000 nM; in experiment [4], over 10000 nM; in experiment [5], 1000 to 10000 nM; in experiment [6], 1000 to 10000 nM.

The values above are taken from patent US9181232B2, “Difluoro-hexahydro-cyclopentaoxazinyls and difluoro-hexahydro-benzooxazinyls as BACE1 inhibitors” (Hoffmann-La Roche Inc., priority 2012, dated 2015).
